According to PMC2752672 (Biochemistry, 2009):
Like-named read-outs stand apart in the source and are kept apart here.

Key:
KOR [1] = biological target: T1, KOR (Homo sapiens, UniProt P41145); format: binding; details: read-out: Ki a
KOR [2] = biological target: T1, KOR; format: binding; details: read-out: Ki b
KOR [3] = biological target: T1, KOR; assay: biochemical; format: biochemical; details: for EC50: read-out: EC50 c
KOR [4] = biological target: T1, KOR; assay: biochemical; format: binding
[5] = storage stability of the compound; details: room temperature / prolonged storage
C57BL/6J mice = format: in vivo, mouse; details: for baseline startle activity: 120-dB stimulus, all doses; for prepulse-dependent PPI: all prepulse intensities

T1 sequence (P41145 whole entry): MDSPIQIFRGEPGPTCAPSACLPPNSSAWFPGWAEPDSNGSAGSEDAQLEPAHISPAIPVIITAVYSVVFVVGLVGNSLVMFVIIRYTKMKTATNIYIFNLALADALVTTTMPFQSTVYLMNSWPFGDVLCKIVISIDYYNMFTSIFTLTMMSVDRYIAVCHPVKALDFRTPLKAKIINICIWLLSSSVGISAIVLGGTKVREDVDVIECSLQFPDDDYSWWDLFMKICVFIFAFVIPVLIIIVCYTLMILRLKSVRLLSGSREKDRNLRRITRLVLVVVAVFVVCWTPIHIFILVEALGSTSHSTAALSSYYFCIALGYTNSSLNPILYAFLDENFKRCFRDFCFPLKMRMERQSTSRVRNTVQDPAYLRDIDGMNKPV

In the case of COC(=O)[C@@H]1C[C@H](OC(=O)CBr)C(=O)[C@H]2[C@@]1(C)CC[C@H]1C(=O)O[C@H](c3ccoc3)C[C@]21C [RB-50, 22-Bromosalvinorin A], the Ki (KOR [1]) is reported as 1.5 ± 0.22 nM, the Ki (KOR [2]) is reported as 39.6 ± 11.6 nM and the “Relative Emax” value (KOR [3]) is reported as 76 +/− 7%. For the same compound, the EC50 (KOR [3]) was 11 nM, the “irreversible inhibition of binding, tested as potential affinity ligand” value (KOR [4]) was “none showed significant irreversible inhibition of binding” and the stability on storage [5] was “highly unstable at room temperature”.

With COC(=O)[C@@H]1C[C@H](OC(=O)CCl)C(=O)[C@H]2[C@@]1(C)CC[C@H]1C(=O)O[C@H](c3ccoc3)C[C@]21C [RB-48, 22-Chlorosalvinorin A] the Ki (KOR [1]) was 2.1 ± 0.8 nM, the Ki (KOR [2]) was 32 ± 15 nM and the “Relative Emax” value (KOR [3]) was 85 ± 3%. For the same compound, the EC50 (KOR [3]) was 0.19 ± 0.01 nM and the “wash-resistant inhibition of binding (preliminary studies)” value (KOR [4]) was “resulted in wash-resistant inhibition of binding”.

For COC(=O)[C@@H]1C[C@H](OC(C)=O)C(=O)[C@H]2[C@@]1(C)CC[C@H]1C(=O)O[C@H](c3ccoc3)C[C@]21C [Salvinorin A, reference compound], the “effect on radioligand binding after incubation and washing (controls)” value (KOR [4]) was “did not substantially alter radioligand binding”, the “Null Activity (mAmp displacement)” value (C57BL/6J mice; 0.25 mg/kg i.p., mice) was 19.44 ± 5.83 mAmp displacement and the “Null Activity (mAmp displacement)” value (C57BL/6J mice; 0.5 mg/kg i.p., mice) was 28.79 ± 3.99 mAmp displacement. For the same compound, the “null activity, in words” value (C57BL/6J mice; 0.5 mg/kg, compared to all other doses and vehicle, p < 0.001) was “significant increases in null activity”, the “Null Activity (mAmp displacement)” value (C57BL/6J mice; 1.0 mg/kg i.p., mice) was 13.63 ± 3.65 mAmp displacement and the “PPI at the 8-, 12-, and 16-dB prepulses vs vehicle” value (C57BL/6J mice; 2 mg/kg) was “marked reductions in PPI”. The “PPI responses to 4 dB prepulse vs vehicle” value (C57BL/6J mice; 2 mg/kg) was “unchanged from the vehicle control”, the “Null Activity (mAmp displacement)” value (C57BL/6J mice; 2.0 mg/kg i.p., mice) was 13.76 ± 3.65 mAmp displacement and the “overall PPI (overall inhibition) vs vehicle” value (C57BL/6J mice; 2 mg/kg i.p., p < 0.044) was “significantly suppressed inhibition”. For the same compound, the “PPI responses at the 8- and 12-dB prepulses vs vehicle” value (C57BL/6J mice; 0.25, 0.5, or 1 mg/kg) was “similar”, the “overall PPI (overall inhibition) vs vehicle” value (C57BL/6J mice; 0.25, 0.5, or 1 mg/kg i.p.) was “similar” and the “PPI to the 4-dB prepulse vs vehicle” value (C57BL/6J mice; 0.25, 0.5 or 1 mg/kg, p < 0.051) was “increased PPI to the 4-dB prepulse”. For the same compound, the baseline startle activity (C57BL/6J mice) was “dose-dependent parabolic changes in baseline startle activity” and the “prepulse-dependent PPI” value (C57BL/6J mice) was “disrupted prepulse-dependent PPI at all prepulse intensities”.

With Oc1ccc2c3c1O[C@H]1c4[nH]c5c(c4C[C@@]4(O)[C@@H](C2)N(CC2CC2)CC[C@]314)C[C@@]1(O)[C@H]2Cc3ccc(O)c4c3[C@@]1(CCN2CC1CC1)[C@H]5O4 [Nor-BNI, nor-binaltorphimine, reference compound] the “antagonism of agonist-induced disruption of PPI” value (C57BL/6J mice; mouse, in vivo) was “antagonized salvinorin A and RB-64-induced disruption of PPI”.

In the case of COC(=O)C1CC(OC(=O)C(Cl)Cl)C(=O)C2C1(C)CCC1C(=O)OC(c3ccoc3)CC12C (stereo not shown) [RB-66, 22,22-Dichlorosalvinorin A], the Ki (KOR [1]) is reported as 911 ± 170 nM, the Ki (KOR [2]) is reported as over 10000 nM and the “Relative Emax” value (KOR [3]) is reported as 103 +/− 14%. For the same compound, the EC50 (KOR [3]) was 1680 nM.

For COC(=O)C1CC(OC(=O)C(C)Cl)C(=O)C2C1(C)CCC1C(=O)OC(c3ccoc3)CC12C (single isomer, unassigned) [RB-55-2, (22-R)-22-Chloro-22-methylsalvinorin A], the Ki (KOR [1]) was 58 ± 32 nM, the Ki (KOR [2]) was over 3000 nM and the “Relative Emax” value (KOR [3]) was 98 +/− 8%. The EC50 (KOR [3]) was 273 nM.

With COC(=O)[C@@H]1C[C@H](OC(=O)CSC#N)C(=O)[C@H]2[C@@]1(C)CC[C@H]1C(=O)O[C@H](c3ccoc3)C[C@]21C [RB-64, 22-Thiocyanatosalvinorin A] the Emax (KOR [3]; read-out: Relative Emax) was 95 ± 2%, the “maximum of KOR labeled” value (KOR [4]) was 59% and the “wash-resistant inhibition of KOR binding” value (KOR [4]) was 82%. The EC50 (KOR [4]; EC50 for wash-resistant inhibition of binding) was 9000 nM, the “Null Activity (mAmp displacement)” value (C57BL/6J mice; 0.005 mg/kg i.p., mice) was 8.22 ± 3.73 mAmp displacement and the “PPI responses to the 12- and 16-dB prepulses” value (C57BL/6J mice; 0.005 mg/kg, p < 0.010) was “depressed responses”. For the same compound, the “Null Activity (mAmp displacement)” value (C57BL/6J mice; 0.01 mg/kg i.p., mice) was 16.81 ± 4.4 mAmp displacement, the “Null Activity (mAmp displacement)” value (C57BL/6J mice; 0.05 mg/kg i.p., mice) was 64.89 ± 10.88 mAmp displacement and the “PPI responses to the 12- and 16-dB prepulses” value (C57BL/6J mice; 0.05 mg/kg, p < 0.052) was “increased the responses”. The “Null Activity (mAmp displacement)” value (C57BL/6J mice; 0.1 mg/kg i.p., mice) was 51.6 ± 12.16 mAmp displacement, the “overall PPI (overall inhibition) vs vehicle” value (C57BL/6J mice; 0.1 mg/kg i.p., p < 0.046) was “significant reduction in overall inhibition” and the “PPI to the 4 dB prepulse vs vehicle” value (C57BL/6J mice; 0.005, 0.01, or 0.05 mg/kg, p < 0.047) was “enhanced relative to vehicle”. For the same compound, the “overall PPI (overall inhibition) vs vehicle” value (C57BL/6J mice; 0.01 and 0.05 mg/kg i.p., p < 0.021) was “marked increases in overall inhibition”, the “PPI to the 8-dB prepulse vs vehicle” value (C57BL/6J mice; 0.01 and 0.05 mg/kg, p < 0.031) was “increased PPI to the 8-dB prepulse” and the baseline startle activity (C57BL/6J mice) was “dose-dependent parabolic changes in baseline startle activity”. The “prepulse-dependent PPI” value (C57BL/6J mice) was “disrupted prepulse-dependent PPI at all prepulse intensities”, the “PPI responses to the 12- and 16-dB prepulses vs vehicle” value (C57BL/6J mice; highest dose (0.1 mg/kg), p < 0.003) was “significantly depressed compared to the vehicle control” and the “in vivo efficacy relative to salvinorin A” value (C57BL/6J mice; in vivo studies (PPI), mice) was 20 fold. The “null activity, in words” value (C57BL/6J mice; two highest doses (0.05, 0.1 mg/kg), compared to vehicle, p < 0.001) was “increased activity”, the “null activity, in words” value (C57BL/6J mice; two lower doses (0.005, 0.01 mg/kg)) was “little effect on null activity” and the stability on storage [5] was “stable compound and may be stored for prolonged time without decomposition”.

In the case of COC(=O)C1CC(OC(=O)C(C)Cl)C(=O)C2C1(C)CCC1C(=O)OC(c3ccoc3)CC12C (single isomer, unassigned) [RB-55-1, (22-S)-22-Chloro-22-methylsalvinorin A], the Ki (KOR [1]) is reported as 30 ± 15 nM, the Ki (KOR [2]) is reported as 269 ± 48 nM and the “Relative Emax” value (KOR [3]) is reported as 99 +/− 12%. It also gave an EC50 (KOR [3]) of 160 nM.

For COCC(=O)O[C@H]1C[C@@H](C(=O)OC)[C@]2(C)CC[C@H]3C(=O)O[C@H](c4ccoc4)C[C@]3(C)[C@H]2C1=O [RB-65, 22-Methoxysalvinorin A], the Ki (KOR [1]) was 5.7 ± 1.2 nM, the Ki (KOR [2]) was 431 ± 54.1 nM and the “Relative Emax” value (KOR [3]) was 99 +/− 11%. It also gave an EC50 (KOR [3]) of 67 nM.

With COC(=O)C1CC(OC(=O)C(C)Cl)C(=O)C2C1(C)CCC1C(=O)OC(c3ccoc3)CC12C [RB-55, (22-R,S)-22-Chloro-22-methylsalvinorin A] the Ki (KOR [1]) was 21 ± 3 nM, the Ki (KOR [2]) was 189 ± 70.1 nM and the “Relative Emax” value (KOR [3]) was 83 +/− 10%. The EC50 (KOR [3]) was 35 nM.
